Laboratory results as given in US20260048036A1, “CRYSTALLINE FORMS OF A GLUCOSYLCERAMIDE SYNTHASE INHIBITOR AND USES THEREOF” (ACELINK THERAPEUTICS, INC., priority 2022, published 2026).
Where a chain is given by its changes, count along the chain named. Where “and” joins values, the source holds several entries; their conditions need not be identical. Equal values may be shown once. Values belong to the compound of their own block, whether it stands above or below them.

Tests used:
[1] = Solubility at 37° C. in pH buffers and bio-relevant media
[2] = Solid state stability, 1 week (HPLC purity, color, XRPD); conditions: for Bulk (XRPD) / Purity, Bulk (HPLC): Solid state, 1 week; for Purity, Bulk (HPLC): initial purity 99.8%
[3] = Hygroscopicity by DVS at 25° C.; assay type: physicochemical; conditions: for water uptake increased from 40% RH to 90% RH: DVS
[4] = biological target: T1, Glucosylceramide synthase (GCS) (Canis lupus familiaris, UniProt A0A8I3MXG6); experiment: GCS enzymatic assay with MDCK cell lysate; assay type: biochemical, canine
T1 construct: The MDCK, K-562, and L6 cell lines all endogenously express GCS enzyme; host or cells: MDCK (canine kidney) cell lysate
T1 sequence (A0A8I3MXG6 1-394): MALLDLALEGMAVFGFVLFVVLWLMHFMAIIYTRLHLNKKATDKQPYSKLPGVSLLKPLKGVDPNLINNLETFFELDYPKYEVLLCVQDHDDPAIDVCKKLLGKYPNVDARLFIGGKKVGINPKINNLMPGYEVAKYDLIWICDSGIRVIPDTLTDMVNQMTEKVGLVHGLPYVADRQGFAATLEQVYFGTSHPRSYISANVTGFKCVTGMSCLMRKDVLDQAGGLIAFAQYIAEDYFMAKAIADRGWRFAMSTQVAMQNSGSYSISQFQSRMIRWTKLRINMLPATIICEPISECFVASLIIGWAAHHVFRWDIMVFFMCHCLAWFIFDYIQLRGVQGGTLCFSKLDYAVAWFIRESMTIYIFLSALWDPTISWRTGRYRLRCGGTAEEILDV
Text: (§1) The reaction product, C6-NBD-glucosylceramide, could then be detected and quantified by LC-MS/MS. The inventors used this method to test and validate the effect of various GCS inhibitors on GCS enzyme activity from different species.
(§2) The GCS enzyme activity was detected by using the fluorescent substrate, C6-NBD-ceramide, and monitoring the formation of the fluorescent reaction product, C6-NBD-glucosylceramide. First, the inventors used cell lysate derived from a canine kidney cell line (MDCK, ATCC Cat #CCL-34™) as the source of GCS and tested the inhibitory activity of several control and test compounds.
(§3) GCS activity was evaluated using a GCS enzyme assay derived from MDCK or L6 cell lysates.
(§4) MDCK or L6 cell lysates were prepared using M-PER in the presence of a protease inhibitor cocktail. Each 100 mm dish (100% confluent) was lysed with 250 μl of M-PER containing protease inhibitors. Protein concentration was determined using Pierce BCA protein assay kit.
The final concentration of DMSO was 0.1% in both compound treated and DMSO only treated samples. Each individual reaction was terminated with 11 volumes of methanol:acetonitrile (6:5; containing 200 ng/ml Tolbutamide as internal control). After sufficient mixing, reactions were centrifuged at 2000 rpm for 10 mins, supernatant was injected into the LC-MS/MS for analysis.
(§5) The quantitative analysis of C6-NBD-glucosylceramide was performed on a Shimadzu ultra-fast liquid chromatography coupled with API 4000 mass spectrometer. Analyst 1.5 software packages were used to control the LC-MS/MS system, as well as for data acquisition and processing.
(§6) The C6-NBD-glucosylceramide reading was normalized first by dividing the peak area of C6-NBD-glucosylceramide with the peak area of the internal standard, and then the amount was calculated according to the standard curve generated in the same assay run. For the cell based assay results, the amount of C6-NBD-glucosylceramide was also normalized by the protein concentration of the cell samples.
IC50 values were generated from sigmoidal dose-response (variable slope) curves with GraphPad Prism software (GraphPad Software, Inc., San Diego, CA) using the percent inhibition of C6-NBD-glucosylceramide accumulation relative to DMSO control.

[5] = biological target: T2, Glucosylceramide synthase (GCS) (Rattus norvegicus, UniProt Q9R0E0); experiment: GCS enzymatic assay with L6 cell lysate; assay type: biochemical; conditions: 1 μM, N = 1, N = 2
T2 construct: The MDCK, K-562, and L6 cell lines all endogenously express GCS enzyme; host or cells: L6 rat skeletal muscle cell lysate
T2 sequence (Q9R0E0 1-394): T1 sequence (A0A8I3MXG6 1-394) with L8Q, V13L, A29S, D96E, G131A, K164R, R249K, A251S, T377A
Text: as §1, with “In this study, the inventors developed a reliable method to monitor GCS catalytic activity using the fluorescent substrate, C6-NBD-ceramide. The reaction” for “The reaction”
The MDCK, K-562, and L6 cell lines all endogenously express GCS enzyme and were used to test the effect of various GCS inhibitors on enzyme originating from different species. The GCS enzyme activity was detected by using the fluorescent substrate, C6-NBD-ceramide, and monitoring the formation of the fluorescent reaction product, C6-NBD-glucosylceramide. First, the inventors used cell lysate derived from a canine kidney cell line (MDCK, ATCC Cat #CCL-34™) as the source of GCS and tested the inhibitory activity of several control and test compounds. The inventors then used the human leukemia K-562 cell line (ATCC Cat #[…]) to test the effect of these GCS inhibitors on intact living cells. Finally, a cell lysate derived from a rat skeletal muscle cell line, L6 (ATCC Cat #[…]), was used to test the effect of these GCS inhibitors on rodent GCS enzyme.
as §3, §4
Sixty micrograms of MDCK lysate was incubated with various concentrations of compounds (0.00001 μM-1 μM) in 100 mM Tris buffer (pH 7.5) containing 10 mM MgCl2, 1 mM dithiothreitol, 1 mM EGTA, 2 mM NAD, 100 μM UDP-glucose, 10 μM C6-NBD-ceramide with 35 μM dioleoylphosphatidylcholine/5 μM sulfatide in a final reaction volume of 100 μl at 37° C. for 1 hour. The final concentration of DMSO was 0.1% in both compound treated and DMSO only treated samples. Each individual reaction was terminated with 11 volumes of methanol:acetonitrile (6:5; containing 200 ng/ml Tolbutamide as internal control). After sufficient mixing, reactions were centrifuged at 2000 rpm for 10 mins, supernatant was injected into the LC-MS/MS for analysis.
For the assay with L6 cell lysate, different amounts of L6 cell lysate were used.
as §5, §6
To confirm the inhibitory activity of test compounds on GCS from different species, cells from rat were used. First, the presence of GCS activity was verified using various amounts of L6 cell lysate (FIG. 34, Table 26).

[6] = biological target: T3, Glucosylceramide synthase (GCS) (Homo sapiens, UniProt Q16739); experiment: GCS cell-based assay with live K-562 cells; conditions: C6-NBD-glucosylceramide by LC-MS/MS
T3 construct: The MDCK, K-562, and L6 cell lines all endogenously express GCS enzyme; host or cells: K-562 human leukemia cells, live
T3 sequence (Q16739 1-394): T1 sequence (A0A8I3MXG6 1-394) with V20L, S196Y
Text: as §1, §2, §5
as §6, with “samples. […]” for “samples.”

[7] = 1 μM, 60 μg MDCK lysate/reaction, N = 1, N = 2

Structure (SMILES): O=C(N[C@H](CN1CCCC1)[C@H](O)c1ccc(OC2CC2)c(Cl)c1)/C(=N/O)c1ccc2cc(Cl)ccc2c1.O=C(O)C[C@H](O)C(=O)O
higher solubility than that of the free form Crystalline Form A of Compound 1 ([1]; pH 4.5 buffer, 37° C.): about 3 folds
chemical and physical stability ([2]; 25° C./92% RH open container, 40° C./75% RH open container, 60° C. tight container, one week): chemically and physically stable
Bulk (XRPD) ([2]; 25° C./92% RH, open container): No form change
Purity, Bulk (HPLC) ([2]; 25° C./92% RH, open container): 99.8%
Bulk (XRPD) ([2]; 40° C./75% RH, open container): No form change
Purity, Bulk (HPLC) ([2]; 40° C./75% RH, open container): 99.8%
Bulk (XRPD) ([2]; 60° C., tight container): No form change
Purity, Bulk (HPLC) ([2]; 60° C., tight container): 99.8%
XRPD after DVS test [3]: No form change
hygroscopicity (DVS) [3]: slightly hygroscopic
Desorp. (DVS) ([3]; 0% RH): 0.17%
Sorp. (water uptake by DVS) ([3]; 0% RH): 0.17%
Desorp. (DVS) ([3]; 10% RH): 0.22%
Sorp. (water uptake by DVS) ([3]; 10% RH): 0.22%
Desorp. (DVS) ([3]; 20% RH): 0.26%
Sorp. (water uptake by DVS) ([3]; 20% RH): 0.26%
Desorp. (DVS) ([3]; 30% RH): 0.30%
Sorp. (water uptake by DVS) ([3]; 30% RH): 0.30%
Desorp. (DVS) ([3]; 40% RH): 0.33%
Sorp. (water uptake by DVS) ([3]; 40% RH): 0.33%
Sorp. (water uptake by DVS) ([3]; 50% RH): 0.36%
Sorp. (water uptake by DVS) ([3]; 60% RH): 0.40%
Sorp. (water uptake by DVS) ([3]; 70% RH): 0.48%
Sorp. (water uptake by DVS) ([3]; 80% RH): 0.56%
Sorp. (water uptake by DVS) ([3]; 90% RH): 0.92%
water uptake increased from 40% RH to 90% RH [3]: about 0.59%

Structure (SMILES): O=C(N[C@H](CN1CCCC1)[C@H](O)c1ccc(OC2CC2)c(Cl)c1)/C(=N/O)c1ccc2cc(Cl)ccc2c1.O=C(O)C(O)C(O)C(=O)O
Bulk (XRPD) ([2]; 25° C./92% RH, open container): No form change
Purity, Bulk (HPLC) ([2]; 25° C./92% RH, open container): 99.8%
Bulk (XRPD) ([2]; 40° C./75% RH, open container): No form change
Purity, Bulk (HPLC) ([2]; 40° C./75% RH, open container): 99.8%
Bulk (XRPD) ([2]; 60° C., tight container): No form change
Purity, Bulk (HPLC) ([2]; 60° C., tight container): 99.8%
XRPD after DVS test [3]: No form change
hygroscopicity (DVS) [3]: slightly hygroscopic
Desorp. (DVS) ([3]; 0% RH): 0.00%
Sorp. (water uptake by DVS) ([3]; 0% RH): 0.00%
Desorp. (DVS) ([3]; 10% RH): 0.07%
Sorp. (water uptake by DVS) ([3]; 10% RH): 0.04%
Desorp. (DVS) ([3]; 20% RH): 0.12%
Sorp. (water uptake by DVS) ([3]; 20% RH): 0.09%
Desorp. (DVS) ([3]; 30% RH): 0.18%
Sorp. (water uptake by DVS) ([3]; 30% RH): 0.14%
Desorp. (DVS) ([3]; 40% RH): 0.22%
Sorp. (water uptake by DVS) ([3]; 40% RH): 0.18%
Sorp. (water uptake by DVS) ([3]; 50% RH): 0.25%
Sorp. (water uptake by DVS) ([3]; 60% RH): 0.28%
Sorp. (water uptake by DVS) ([3]; 70% RH): 0.35%
Sorp. (water uptake by DVS) ([3]; 80% RH): 0.42%
Sorp. (water uptake by DVS) ([3]; 90% RH): 0.57%
water uptake increased from 40% RH to 90% RH [3]: about 0.39%

Structure (SMILES): O=C(N[C@H](CN1CCCC1)[C@H](O)c1ccc(OC2CC2)c(Cl)c1)/C(=N/O)c1ccc2cc(Cl)ccc2c1 [Compound 1, (E)-N-((1R,2R)-1-(3-chloro-4-cyclopropoxyphenyl)-1-hydroxy-3-(pyrrolidin-1-yl)propan-2-yl)-2-(6-chloronaphthalen-2-yl)-2-(hydroxyimino)acetamide]
pH dependence of solubility ([1]; […]): typical pH dependent solubility

C6-NBD-Ceramide (Normalized to internal control) [4, 7]: 4.68 and 4.99
C6-NBD-Glucosylceramide Concentration [4, 7]: 49.8 nM and 59.3 nM
Inhibition [4, 7]: 94.01%
inhibition at 1 µM [4, 7]: 95%
IC50 ([4]; MDCK cell lysate as source of GCS, C6-NBD-glucosylceramide by LC-MS/MS): 52.2 nM
C6-NBD-Ceramide (Normalized to internal control) ([5]; 30 μg L6 lysate/reaction): 5.98 and 6.37
C6-NBD-Glucosylceramide Concentration ([5]; 30 μg L6 lysate/reaction): 31.2 nM and 51.0 nM
Inhibition ([5]; 30 μg L6 lysate/reaction): 92.48%
inhibition at 1 µM ([5]; 30 μg L6 lysate/reaction): 95.4%
C6-NBD-Ceramide (Normalized to internal control) ([5]; 60 μg L6 lysate/reaction): 6.47 and 5.46
C6-NBD-Glucosylceramide Concentration ([5]; 60 μg L6 lysate/reaction): 50.2 nM and 44.1 nM
Inhibition ([5]; 60 μg L6 lysate/reaction): 96.04%
inhibition at 1 µM ([5]; 60 μg L6 lysate/reaction): 95.5%
C6-NBD-Ceramide (Normalized to internal control) ([5]; 120 μg L6 lysate/reaction): 5.82 and 6.23
C6-NBD-Glucosylceramide Concentration ([5]; 120 μg L6 lysate/reaction): 48.4 nM and 57.9 nM
Inhibition ([5]; 120 μg L6 lysate/reaction): 95.77%
inhibition at 1 µM ([5]; 120 μg L6 lysate/reaction): 96.5%
C6-NBD-Ceramide (Normalized to internal control) ([5]; 180 μg L6 lysate/reaction): 5.60 and 5.41
C6-NBD-Glucosylceramide Concentration ([5]; 180 μg L6 lysate/reaction): 63.6 nM and 63.3 nM
Inhibition ([5]; 180 μg L6 lysate/reaction): 95.22%
inhibition at 1 µM ([5]; 180 μg L6 lysate/reaction): 95.2%
C6-NBD-Ceramide (Normalized to internal control) ([5]; 240 μg L6 lysate/reaction): 4.96 and 5.12
C6-NBD-Glucosylceramide Concentration ([5]; 240 μg L6 lysate/reaction): 56.2 nM and 57.7 nM
Inhibition ([5]; 240 μg L6 lysate/reaction): 95.21%
inhibition at 1 µM ([5]; 240 μg L6 lysate/reaction): 95.3%
Structure (SMILES): CCCCCCCC(=O)N[C@H](CN1CCCC1)[C@H](O)c1ccc2c(c1)OCCO2 [Eliglustat, reference compound]

IC50 [6]: 14.8 nM
Structure (SMILES): O=C(N[C@H](CN1CCCC1)[C@H](O)c1ccc(OC2CC2)c(Cl)c1)/C(=N\O)c1ccc2cc(Cl)ccc2c1 [Geometric isomer of Compound 1]
